Results on 1 molecule are retold here after US8999952B2, “Aripiprazole complex formulation and method” (Otsuka Pharmaceutical Co., Ltd., priority 2002, dated 2015).

A value given as a limit tells only on which side of the number the result lay.

A short description of series [1]: tissue irritation at the intramuscular injection site. To be noted: intramuscular (IM) injectable solution in water-miscible co-solvent and water-immiscible solvent/co-solvent systems. Format: in vivo.
A short description of a further series: aqueous solubility. The series is classed as physicochemical. The following applies: water; at room temperature.

As usually defined, the solubility is the dissolved amount per volume that the medium holds. A low value points to little dissolved substance. In the case of `O=C1CCc2ccc(OCCCCN3CCN(c4cccc(Cl)c4Cl)CC3)cc2N1` [Aripiprazole], the “tissue irritation at the muscular site” value in series [1] was “unacceptable (moderate to severe) tissue irritation”. Also, the solubility in the series “aqueous solubility” is < 1 µg/mL.
